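Cultured in 96-well plates, cells were exposed to test compound for 48 hours across five concentrations. Definition used: TGI = concentration required for complete inhibition of growth.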
Key:
Assay in all cases: growth of human tumour cells (NCI), 48 h
OVCAR-4 ovarian = test system: OVCAR-4 ovarian
HCT-116 colon = test system: HCT-116 colon
HS 578T breast = test system: HS 578T breast
SK-MEL-2 melanoma = test system: SK-MEL-2 melanoma
SK-MEL-5 melanoma = test system: SK-MEL-5 melanoma
SK-OV-3 ovarian = test system: SK-OV-3 ovarian
HT29 colon = test system: HT29 colon
RPMI-8226 leukemia = test system: RPMI-8226 leukemia
TK-10 renal = test system: TK-10 renal
EKVX NSCLC = test system: EKVX NSCLC
LOX IMVI melanoma = test system: LOX IMVI melanoma
NCI-H460 lung = test system: NCI-H460 lung
K-562 leukemia = test system: K-562 leukemia

Row | SMILES | TGI (OVCAR-4 ovarian) [µM] | TGI (HCT-116 colon) [µM] | TGI (HS 578T breast) [µM] | TGI (SK-MEL-2 melanoma) [µM] | TGI (SK-MEL-5 melanoma) [µM] | TGI (SK-OV-3 ovarian) [µM] | TGI (HT29 colon) [µM] | TGI (RPMI-8226 leukemia) [µM] | TGI (TK-10 renal) [µM] | TGI (EKVX NSCLC) [µM] | TGI (LOX IMVI melanoma) [µM] | TGI (NCI-H460 lung) [µM] | TGI (K-562 leukemia) [µM]
1 | CCCC[P+](CCCC)(CCCC)C(C(=O)OC)C(C(=O)OC)=C1SC(C(=O)OC)=C(C(=O)OC)S1 (centres undefined) | > 100 | > 100 | > 100 | > 100 | > 100 | > 100 | > 100 | > 100 | > 100 | > 100 | > 100 | > 100 | 
2 | CCCCn1c(C)c(C)c2c1NN=C(C#N)S2(=O)=O | > 100 | > 100 | > 100 | > 100 | > 100 | > 100 | > 100 | > 100 | > 100 | > 100 | > 100 | > 100 | > 100
3 | CC(=O)N1c2ccccc2C2=NN=C(N(C)C)SC21 (centres undefined) | 29.8 | 10.1 | 52.4 | 6.36 |  |  | 20.5 | 81.3 | 21 | 12.8 | 14.1 | 13.3 | 18.8
4 | COc1ccc(-c2cc(-c3ccccc3)c3c(n2)-c2ccccc2NC(=O)C3)cc1 | > 100 | > 100 | 30.5 | > 100 | > 100 | > 100 | > 100 | > 100 | > 100 | > 100 | > 100 | > 100 | 8.64
5 | O=c1[nH]nc(Cc2ccccc2)n1N=C1CCCCC1 | > 100 | > 100 | > 100 | > 100 | > 100 |  | > 100 | > 100 | > 100 | > 100 | > 100 | > 100 | > 100
6 | CCOC(=O)CCN1C(=O)c2ccc(NC(=O)C(=O)O)cc2S1(=O)=O | > 100 | > 100 | > 100 | > 100 | > 100 | > 100 | > 100 | > 100 | > 100 | > 100 | > 100 | > 100 | > 100
7 | CCOC(=O)c1nc2cc(F)c(F)cc2nc1NCc1cc(OC)c(OC)c(OC)c1 | > 100 | > 100 | > 100 | > 100 | > 100 | > 100 | > 100 |  | > 100 | > 100 | > 100 | > 100 | 
8 | CSC1=C(C)S/C(=C\c2ccc(/C=C3\SC(C)=C(SC)S3)cc2)S1 | > 100 | > 100 | > 100 | > 100 | > 100 | > 100 | > 100 |  | > 100 | > 100 | > 100 | > 100 | > 100
9 | CN(O)C(=O)c1ccc(OCc2cccc(Cl)c2)cc1 | > 100 | > 100 | > 100 | > 100 | > 100 | > 100 | > 100 | > 100 | > 100 | > 100 | > 100 | > 100 | > 100
10 | CC1=NN(c2cccc(Cl)c2)C(=N/c2nc3ccccc3s2)/C1=C\c1ccccc1O | > 100 | 68 | 56.5 | 40.3 | 46.2 | 81.1 | 97.8 | > 100 | > 100 | > 100 | 57.6 | 84.4 | > 100
11 | Clc1ccccc1-c1nn2c(CCCCCCCCc3nnc4sc(-c5ccccc5Cl)nn34)nnc2s1 | > 100 | > 100 | > 100 | > 100 | > 100 | > 100 | > 100 | > 100 | > 100 | > 100 | > 100 | > 100 | > 100
12 | CC(=O)O[C@H]1CC[C@@]2(C)C(=CC[C@H]3[C@@H]4C[C@H](N5CCN(C)CC5)[C@H](OC(C)=O)[C@@]4(C)CC[C@@H]32)C1 | 32.6 | 25.7 | 61.8 | 33.3 | 12.5 | > 65.8 | 12.8 | 14.7 | > 100 | 59.9 | 7.83 | 49.4 | 4.07
13 | COc1ccc(/C=C/C(=N/NC(=O)N/N=C(/C=C/c2ccc(OC)cc2)C(C)C)C(C)C)cc1 | > 100 | > 100 | > 100 | > 100 | > 100 | > 100 | > 100 | > 100 | > 100 | > 100 | > 100 | > 100 | > 100
14 | CCOc1cc(NC(C)=O)ccc1C(=O)NN1C(=O)C(Cl)C1c1ccc(O)c(OC)c1 (centres undefined) | 31.6 | 37.7 | 51.5 | 33.5 | 22.8 | 33.6 | 31.9 | 40.5 | 11.5 | 31.5 | 7.79 | 33.1 | 25.1
15 | COc1ccc2c(c1OC)C(Br)CCC(Br)(Br)C2=O (centres undefined) | 18.9 | 17.3 | 44.2 | 28 | 14.7 | 31.2 | 17.6 | 26.1 | 19.4 | 29.4 | 10.8 | 31 | 11.6
16 | O=C(c1c(F)c(F)c(F)c(F)c1F)n1c(=O)[nH]c2ccccc21 | 31.8 | 12.2 | 38.8 | 17.5 | 28.7 | 29.7 | 18 | 25.1 | 18.5 | 29.3 | 14.9 | 27.2 | 14.9
17 | COc1ccc2c(c1)nc1n2C(c2c(F)cccc2F)SC1 (centres undefined) | > 100 | > 100 | > 100 | 96.7 | 56.4 | > 100 | > 100 | > 100 | > 100 | > 100 | > 100 | > 100 | > 100
18 | Nc1c(O)c2c(c(O)c1Cl)C(=O)C=CC2=O | 16.2 | 7.09 | 37.1 | 23.8 | 2.04 | > 60.7 | 8.21 | 44.8 | 37 | 24.4 | 16.4 | 4.64 | > 60.6

Row | SMILES | TGI (OVCAR-4 ovarian) [µM] | TGI (HCT-116 colon) [µM] | TGI (HS 578T breast) [µM] | TGI (SK-MEL-2 melanoma) [µM] | TGI (SK-MEL-5 melanoma) [µM] | TGI (SK-OV-3 ovarian) [µM] | TGI (HT29 colon) [µM] | TGI (RPMI-8226 leukemia) [µM] | TGI (TK-10 renal) [µM] | TGI (EKVX NSCLC) [µM] | TGI (LOX IMVI melanoma) [µM] | TGI (NCI-H460 lung) [µM] | TGI (K-562 leukemia) [µM]
19 | Cc1ccc([N+](=O)[O-])cc1S(=O)(=O)Nc1ccc(C2=NOC(c3ccccc3)C2)cc1 (centres undefined) | 11.8 | 24.1 | > 100 | 21.3 | 20.1 | 56.5 | 43.8 | 34.6 |  | 69.1 | 24.3 | 29.1 | 5.14
20 | O=c1oc2ccccc2cc1-c1nc2ccccc2c(=O)[nH]1 | > 100 | > 100 | > 100 | > 100 | > 100 | > 100 | > 100 | > 100 | > 100 | > 100 | > 100 | > 100 | > 100
21 | CCCCCCCCCCCCOCCCCCCCCC/C=C/c1ccc2c(c1)OCCOCCOCCOCCO2 | 45.1 | 29.5 | 47.3 | 30.2 | 29.7 | 34.4 | 45.4 | 64.5 | 41.5 | 61.6 | 38.9 | 37.9 | > 100
22 | CC(C)(C)c1cc(C(C)(C)C)c(P=C(Cl)Cl)c(C(C)(C)C)c1 (centres undefined) | > 100 | > 100 | > 100 | > 100 | > 100 | > 100 | > 100 | > 100 | > 100 | > 100 | > 100 | > 100 | > 100
23 | Cc1cccc(/C=N/NC(=S)NC2CCCCC2)n1 | > 100 | 19.4 | > 100 | > 100 | > 100 | > 100 | 42.1 | 45.4 | > 100 | > 100 | 99 | > 67.8 | > 54.7
24 | COc1ccc(C[C@H]2NC[C@H](OC(C)=O)[C@H]2OC(C)=O)cc1 | 0.706 | 0.685 | 0.465 | 0.627 | 0.345 | 2.56 | 1.04 | 1.95 | > 35.3 | 0.606 | 0.331 | 1.44 | 51.6
25 | O=C1c2scc(-c3ccc(F)cc3)c2-n2cccc21 | > 100 | > 100 | > 100 | > 100 | > 100 | > 100 | > 100 | > 100 | > 100 | > 100 | > 100 | > 100 | 
26 | O=[N+]([O-])/C(C(Cl)=C(Cl)Cl)=C(\Nc1cccc2cccnc12)Sc1ccccc1 | 51.4 | 39 | 38 | 82.5 |  | > 100 | 73.6 | > 100 |  | > 100 |  | > 100 | 84.5
27 | C[C@@H]1C(=O)O[C@@H]2C[C@@]1(C)[C@@H]1C(=O)C3(O)OC14C2(C)OC(=O)[C@@]4(O)CCC1C3C(O)C=C2CC=CC(=O)[C@@]21C (some centres undefined) | > 100 | 48.2 | 50.7 | 62.9 | > 100 | > 100 | 91 | 61.3 | > 100 | > 100 |  | > 100 | > 100
28 | CNc1nc2c(C)ccc3nc(N(C)C)nc-3c2n1C | > 10 | > 10 | > 10 | > 10 | > 10 | > 10 | > 10 | > 10 | > 10 | > 10 |  | > 10 | > 10
29 | NS(=O)(=O)c1ccc(NC(=S)/N=C/c2c(O)c3ccccc3[nH]c2=O)cc1 | > 100 | > 100 | > 100 | > 100 | > 100 | > 100 | > 100 | > 100 | > 100 | > 100 | > 100 | > 100 | > 100
30 | CCOC(=O)C(C)c1nc2cc(F)c(N3CCOCC3)cc2[nH]c1=O (centres undefined) | > 100 | > 100 | > 100 | > 100 | > 100 | > 100 | > 100 | > 100 | > 100 | > 100 |  | > 100 | > 100
31 | N/C(=N\Nc1cccc(Cl)c1)c1cccnc1 | > 100 | > 100 | > 100 | > 100 | > 88 | > 100 | > 83.9 | > 89.9 | > 100 | > 100 | > 100 | > 100 | > 100
32 | COC(=O)C1=C(O)C(C(=O)OC)[C@]2(O)[C@H](C(=O)OC)[C@H]1C[C@@H](c1ccc(Cl)cc1Cl)[C@H]2C(=O)OC (some centres undefined) | 67.6 | 18.9 | > 100 | 20.3 | 16.8 | 47.9 | 27.4 | 7.74 | 26.2 | > 100 | 18.7 | 23.2 | 14
33 | COP(=N[Si](C)(C)C)(OC)OC | > 100 | > 100 | > 100 | > 100 | > 100 | > 100 | > 100 | > 100 | > 100 | > 100 | > 100 | > 100 | > 100
34 | CN(C)Cc1cc(N=Nc2c(Cl)cccc2Cl)ccc1O | > 100 | > 100 | > 100 | > 100 | 52.1 | > 100 | > 100 | > 100 | > 100 | > 100 | > 100 | > 100 | > 100
35 | N#CCN(Cc1ccccc1)[C@H]1CCC[C@]1(O)/C=C/c1ccc2c(c1)OCO2 | > 100 |  | 43 | 42.8 | 30.1 | > 100 | 29.8 | 46 | > 100 | > 100 | 29.4 | 38.2 | 51.5

— PubChem BioAssay (NCI)
